Assays:
[1] = tested on: hematological tumor cells; experiment: Hematological tumors in MHC-matched mice; assay type: in vivo
Protocol: In order to determine whether targeting calumenin is useful in treating a preexisting cancerous condition, MHC-matched mice, 5 to 7 weeks old, receive a subcutaneous (s.c.) injection of 5×10^5 hematological tumor cells, and tumors are allowed to form. Tumor growth starting on the first day of treatment is measured by palpitation, and the volume of the xenograft is monitored every 4 days. Tumors are allowed to grow to a sufficient size (5.5 mm) for appropriate analysis of the effects of calumenin treatment on tumor sensitivity to chemotherapeutic drugs. Mice are then treated with a calumenin siRNA (3 μg daily for 16 days) designed to decrease the level of expression of calumenin. Control mice receive no treatment, treatment with taxol or doxorubicin alone (4 mg/kg daily) or treatment with control siRNA sequences that are not complementary to murine calumenin mRNA (3 μg daily for 16 days for each treatment) in combination with taxol or doxorubicin (4 mg/kg daily). Taxol and doxorubicin can be obtained commercially from Sigma Corp. (St. Louis, Mo.).
The animal's weight is measured every 4 days. Tumor growth starting on the first day of treatment is measured by palpitation and the volume of the xenograft is monitored every 4 days. The mice are anaesthetized and sacrificed when the mean tumor weight is over 1 g in the control group. Tumor tissue is excised from the mice and its weight is measured. Tumor weights from mice treated with the calumenin siRNA and chemotherapeutic drugs are compared to tumor weights from mice treated with control siRNA and chemotherapeutic drugs. Tumor cell count is determined by trypsinizing tumors in DMEM medium supplemented with 10% fetal bovine serum until cells are in free suspension. Cells are then transferred to 6-well plates for counting. Cell counts are compared. All experiments are performed in triplicate.
In order to determine whether targeting calumenin is useful in treating a preexisting cancerous condition, MHC-matched mice, 5 to 7 weeks old, receive an s.c. injection of 5×10^5 hematological tumor cells, and tumors are allowed to form. Tumor growth starting on the first day of treatment is measured by palpitation and the volume of the xenograft is monitored every 4 days. Tumors are allowed to grow to a sufficient size (5.5 mm) for appropriate analysis of the effects of calumenin treatment on tumor sensitivity to chemotherapeutic drugs. […]
The animal's weight is measured every 4 days. Tumor growth starting on the first day of treatment is measured and the volume of the xenograft is monitored every 4 days. […] Tumor tissue is excised from the mice and its weight is measured. […] Tumor cell count is determined by trypsinizing tumors in DMEM medium supplemented with 10% fetal bovine serum until cells are in free suspension. […]

MCF-7 cells [2] = experiment: Apoptosis assay (Annexin V staining); assay type: cell-based, human; conditions: FIG. 4
Protocol: This assay was performed to determine the number of cells that were susceptible to chemotherapeutic drugs following incubation with siRNAs. Cells transfected with siRNA were seeded in Lab-Tek 16-well chamber slides (Electron Microscopy Sciences, Hatfield, Pa.) at 10^4 cells/well 48 hrs post-transfection. Apoptosis was determined 16 hours later by annexin-V staining using the Annexin-V FLUOS kit (Roche, Ltd., Basel, CH) following the manufacturer's instructions. Slides were observed under a fluorescence microscope and images were taken using an Olympus digital camera and the Q-Capture software (QImaging, Burnaby, BC, CA).

MCF-7 cells [3] = experiment: cells; assay type: cell-based, human
Protocol: For a typical siRNA transfection, […] of the annealed siRNA duplex was mixed with 1.4 ml of Opti-MEM reagent (Invitrogen). In another tube, […] of Oligofectamine reagent (Invitrogen, Carlsbad, Calif.) was mixed with […] of Opti-MEM. The two solutions were combined and mixed gently by inversion and incubated for 20 min. at RT. The resulting solution was added to the cultured cells drop by drop in a 10 cm dish (cells are approximately 40-50% confluent). The next day the transfected cells were trypsinized and seeded in 6 or 96-well plates and further incubated for the indicated amount of time (assay dependent) before further analysis.
Cell survival was determined using the MTT cytotoxicity assay (see, e.g., Tokuyama et al. (2005) Anticancer Res. 25(1A): 17-22). Small interfering RNA transfected cells were seeded in triplicate into 96-well plates at 5×10^3 cells/well 48 hrs post-transfection. The cells were incubated for an additional 16 to 24 hrs before they were exposed to increasing concentrations of cytotoxic drugs. Doxorubicin (adriamycin), cisplatin, taxol, vinblastine, vincristine, and mitoxantrone were all purchased from Sigma Corp. (St. Louis, Mo.). Stocks were made as follows: 6 mM for doxorubicin, 1.1 mM for vincristine and vinblastine; 1.1 mM for taxol, 50 mM for cisplatin both in DMSO; and 0.97 mM mitoxantrone in ethanol. Appropriate dilutions were made in the respective media for each cell line. Following addition of drugs, incubation was continued for an additional 72 hrs. […] of MTT dye (5 mg/ml) were added into each well and the plate was further incubated at 37° C. for 4 hrs. The dye was solubilized with 10% Triton X-100, 0.01 N HCl and further incubated at 37° C. in the dark for 30 min. Cell viability was determined by measure of absorption at 570 nm in a Wallac multiwell plate reader (PerkinElmer, Inc., Boston, Mass.). The averages of triplicate wells were plotted using the Prism software (GraphPad Software, Inc., San Diego, Calif.).

For “Calumenin siRNA: siRNA duplex targeting human calumenin mRNA; sense 5′-GAAGGACCGUGUACAUCAU-3′ (SEQ ID NO: 1), anti-sense 5′-AUGAUGUACACGGUCCUUC-3′ (SEQ ID NO: 2), 3′TT overhangs (3' TT overhangs on both strands, further chemistry not given here)”, the “prognosis (i.e., smaller tumor or fewer tumor cells)” value ([1]; composition vs only the targeting agent or only the chemotherapeutic drug) was “better prognosis”, the “total cell number in tumors” value ([1]; hematological cancers, vs mice treated with control siRNA) was “lower” and the tumors by weight ([1]; hematological cancers, vs mice treated with control siRNA, 3 μg siRNA daily for 16 days) was “smaller”. For the same substance, the “sensitivity of tumors to chemotherapeutic drug treatment regimes” value ([1]; hematological tumors in mice) was “increases”, the “number of Annexin-V-positive cells” value (MCF-7 cells [2]; compared to cell population treated with control siRNA) was “substantially greater number” and the cell survival (MCF-7 cells [2]; compared to cells treated with siGLO control siRNA) was “decreased”. The “decrease in cell viability of MCF-7 cells” value (MCF-7 cells [3]) was 48%.
